For one assay, the target named is T1, Streptokinase A (Streptococcus pyogenes serotype M1, UniProt P10520).
T1 sequence (P10520 whole entry): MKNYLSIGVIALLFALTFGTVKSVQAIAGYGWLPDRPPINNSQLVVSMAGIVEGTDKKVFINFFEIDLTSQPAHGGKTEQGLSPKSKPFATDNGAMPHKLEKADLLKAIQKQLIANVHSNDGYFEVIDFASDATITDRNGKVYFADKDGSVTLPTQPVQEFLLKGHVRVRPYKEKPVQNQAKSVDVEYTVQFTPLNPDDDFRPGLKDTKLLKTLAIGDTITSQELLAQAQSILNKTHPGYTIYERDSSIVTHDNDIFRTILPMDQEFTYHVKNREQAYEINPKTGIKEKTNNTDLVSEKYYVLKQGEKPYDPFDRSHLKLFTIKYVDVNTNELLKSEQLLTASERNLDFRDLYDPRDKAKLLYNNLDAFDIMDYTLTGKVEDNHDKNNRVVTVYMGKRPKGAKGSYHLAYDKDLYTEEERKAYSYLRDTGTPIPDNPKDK
Description: S. pyogenes streptokinase expression inhibitors, potency, dose response, plasminogen activation absorbance, OD405 (AID 1914).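 Also: secreted streptokinase activity via plasminogen activation per viability signal from cell pellet.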 The format is functional, Streptococcus pyogenes M1 GAS.

The target of assay [1] is Protein kinase C theta type (Homo sapiens, UniProt Q04759). Description: Navigating the Kinome. Panel member name: PRKCQ. In kind it is functional.
The target in assay [2] is Dual specificity protein kinase CLK2 (Homo sapiens, UniProt P49760). The format is functional.
Assay [3] concerns the target Serine/threonine-protein kinase TBK1 (Homo sapiens, UniProt Q9UHD2). Description: Navigating the Kinome. Panel member name: TBK1. In kind it is functional.
The target in assay [4] is Fibroblast growth factor receptor 1 (Homo sapiens, UniProt P11362). The format is functional.
Assay [5] deals with T2, Tyrosine-protein kinase JAK3 (Homo sapiens, UniProt P52333).
T2 sequence (P52333 whole entry): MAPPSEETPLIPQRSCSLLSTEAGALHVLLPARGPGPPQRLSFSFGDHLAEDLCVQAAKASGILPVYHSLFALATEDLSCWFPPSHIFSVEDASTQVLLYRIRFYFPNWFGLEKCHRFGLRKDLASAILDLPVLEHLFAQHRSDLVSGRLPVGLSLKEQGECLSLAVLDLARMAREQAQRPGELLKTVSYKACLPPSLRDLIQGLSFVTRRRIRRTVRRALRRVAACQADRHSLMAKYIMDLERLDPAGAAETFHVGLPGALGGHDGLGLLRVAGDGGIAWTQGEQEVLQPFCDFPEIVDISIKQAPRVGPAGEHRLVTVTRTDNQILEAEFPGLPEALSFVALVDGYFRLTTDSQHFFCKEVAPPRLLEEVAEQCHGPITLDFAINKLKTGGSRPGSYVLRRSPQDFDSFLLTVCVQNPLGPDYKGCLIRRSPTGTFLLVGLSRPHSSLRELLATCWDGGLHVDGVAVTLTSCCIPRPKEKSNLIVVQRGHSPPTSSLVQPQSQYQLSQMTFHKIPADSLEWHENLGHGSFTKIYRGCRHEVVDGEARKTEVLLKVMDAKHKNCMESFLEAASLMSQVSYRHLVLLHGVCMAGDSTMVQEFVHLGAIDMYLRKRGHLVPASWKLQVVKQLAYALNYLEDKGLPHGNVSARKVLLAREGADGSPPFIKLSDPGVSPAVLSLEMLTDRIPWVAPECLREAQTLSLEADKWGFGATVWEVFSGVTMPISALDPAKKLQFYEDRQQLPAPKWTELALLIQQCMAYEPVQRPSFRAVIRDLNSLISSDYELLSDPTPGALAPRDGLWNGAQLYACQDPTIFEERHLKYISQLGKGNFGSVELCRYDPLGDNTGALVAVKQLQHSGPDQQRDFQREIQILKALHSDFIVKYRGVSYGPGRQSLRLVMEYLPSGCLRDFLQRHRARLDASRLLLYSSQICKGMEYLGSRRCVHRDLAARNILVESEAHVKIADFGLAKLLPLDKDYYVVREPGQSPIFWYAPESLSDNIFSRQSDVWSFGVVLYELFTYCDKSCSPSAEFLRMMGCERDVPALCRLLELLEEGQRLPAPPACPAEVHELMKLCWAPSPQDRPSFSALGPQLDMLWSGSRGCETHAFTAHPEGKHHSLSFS
In kind it is functional.

The target of assay [6] is Glycogen synthase kinase-3 alpha (Homo sapiens, UniProt P49840). In kind it is functional.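 Also: GSK3A result taken from a broad kinome-wide kinase panel.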
Assay [7] concerns the target Insulin-like growth factor 1 receptor (Homo sapiens, UniProt P08069). Nature of the assay: Navigating the Kinome. Panel member name: IGF1R. In kind it is functional.
For assay [8], the target named is Dual specificity tyrosine-phosphorylation-regulated kinase 1B (Homo sapiens, UniProt Q9Y463). Description: Navigating the Kinome. Panel member name: DYRK1B. The format is functional.
In assay [9] the target is Leucine-rich repeat serine/threonine-protein kinase 2 (Homo sapiens, UniProt Q5S007). The format is functional.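 Also: value from a broad kinome-wide panel profiling study in which LRRK2 was one of the kinases tested.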
For assay [10], the target named is T3, Inhibitor of nuclear factor kappa-B kinase subunit epsilon (Homo sapiens, UniProt Q14164).
T3 sequence (Q14164 whole entry): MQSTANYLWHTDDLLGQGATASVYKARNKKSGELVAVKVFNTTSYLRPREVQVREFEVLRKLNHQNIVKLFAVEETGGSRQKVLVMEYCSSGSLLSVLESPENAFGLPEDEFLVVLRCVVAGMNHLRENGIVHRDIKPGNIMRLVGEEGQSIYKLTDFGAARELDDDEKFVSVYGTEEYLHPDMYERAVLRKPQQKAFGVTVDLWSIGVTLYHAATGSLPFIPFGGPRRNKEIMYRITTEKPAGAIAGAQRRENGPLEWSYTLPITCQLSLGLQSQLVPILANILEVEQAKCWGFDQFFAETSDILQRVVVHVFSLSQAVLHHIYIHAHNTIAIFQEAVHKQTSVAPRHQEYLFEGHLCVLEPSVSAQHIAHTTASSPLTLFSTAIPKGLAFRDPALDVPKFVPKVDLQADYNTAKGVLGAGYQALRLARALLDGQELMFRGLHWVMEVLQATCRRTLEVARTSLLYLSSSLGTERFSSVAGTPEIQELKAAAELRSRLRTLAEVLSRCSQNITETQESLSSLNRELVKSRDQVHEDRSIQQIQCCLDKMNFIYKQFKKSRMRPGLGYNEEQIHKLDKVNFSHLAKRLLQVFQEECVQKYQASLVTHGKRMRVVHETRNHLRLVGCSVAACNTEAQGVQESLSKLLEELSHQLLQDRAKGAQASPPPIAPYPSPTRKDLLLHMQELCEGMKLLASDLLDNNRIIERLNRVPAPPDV
Description: Navigating the Kinome. Panel member name: IKBKE. In kind it is functional.

The target in assay [11] is Calcium/calmodulin-dependent protein kinase type II subunit alpha (Homo sapiens, UniProt Q9UQM7). Description: Navigating the Kinome. Panel member name: CAMK2A. The format is functional.

Consider 4 compounds from ChEMBL document CHEMBL1201862, “PubChem BioAssay data set” (2004).

Active and inactive are the calls of the source.

Sequence of Protein kinase C theta type (Q04759 whole entry): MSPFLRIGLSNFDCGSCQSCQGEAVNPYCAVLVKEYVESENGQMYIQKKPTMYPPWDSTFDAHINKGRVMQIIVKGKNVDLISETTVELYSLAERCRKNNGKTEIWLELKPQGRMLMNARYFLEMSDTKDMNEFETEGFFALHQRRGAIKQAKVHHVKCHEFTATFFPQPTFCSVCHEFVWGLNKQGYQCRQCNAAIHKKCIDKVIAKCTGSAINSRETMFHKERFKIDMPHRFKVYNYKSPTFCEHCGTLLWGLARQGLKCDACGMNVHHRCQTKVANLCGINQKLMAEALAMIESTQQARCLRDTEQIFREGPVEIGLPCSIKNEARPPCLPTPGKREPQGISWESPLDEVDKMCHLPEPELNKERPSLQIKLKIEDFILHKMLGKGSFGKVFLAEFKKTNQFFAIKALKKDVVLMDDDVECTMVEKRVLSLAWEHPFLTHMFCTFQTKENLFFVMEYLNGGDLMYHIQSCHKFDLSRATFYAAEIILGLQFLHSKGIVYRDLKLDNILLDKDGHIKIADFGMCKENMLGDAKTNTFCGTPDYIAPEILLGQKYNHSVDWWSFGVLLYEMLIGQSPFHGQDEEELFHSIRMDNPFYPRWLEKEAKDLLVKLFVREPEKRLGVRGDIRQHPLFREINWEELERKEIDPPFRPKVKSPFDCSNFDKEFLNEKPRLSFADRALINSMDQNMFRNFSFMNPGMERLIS
Sequence of Calcium/calmodulin-dependent protein kinase type II subunit alpha (Q9UQM7 whole entry): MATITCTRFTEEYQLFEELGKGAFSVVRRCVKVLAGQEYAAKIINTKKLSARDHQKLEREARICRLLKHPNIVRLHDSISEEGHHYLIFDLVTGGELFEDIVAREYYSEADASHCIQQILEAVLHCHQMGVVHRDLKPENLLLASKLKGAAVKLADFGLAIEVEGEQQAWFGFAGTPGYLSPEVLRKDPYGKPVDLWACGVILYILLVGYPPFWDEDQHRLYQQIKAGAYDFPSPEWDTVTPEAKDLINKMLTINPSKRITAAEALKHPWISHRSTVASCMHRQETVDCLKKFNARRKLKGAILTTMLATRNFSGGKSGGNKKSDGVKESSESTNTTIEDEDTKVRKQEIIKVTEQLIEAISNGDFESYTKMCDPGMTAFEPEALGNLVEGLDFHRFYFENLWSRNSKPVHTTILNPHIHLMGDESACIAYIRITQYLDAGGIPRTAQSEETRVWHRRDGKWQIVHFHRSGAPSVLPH
Sequence of Dual specificity protein kinase CLK2 (P49760 whole entry): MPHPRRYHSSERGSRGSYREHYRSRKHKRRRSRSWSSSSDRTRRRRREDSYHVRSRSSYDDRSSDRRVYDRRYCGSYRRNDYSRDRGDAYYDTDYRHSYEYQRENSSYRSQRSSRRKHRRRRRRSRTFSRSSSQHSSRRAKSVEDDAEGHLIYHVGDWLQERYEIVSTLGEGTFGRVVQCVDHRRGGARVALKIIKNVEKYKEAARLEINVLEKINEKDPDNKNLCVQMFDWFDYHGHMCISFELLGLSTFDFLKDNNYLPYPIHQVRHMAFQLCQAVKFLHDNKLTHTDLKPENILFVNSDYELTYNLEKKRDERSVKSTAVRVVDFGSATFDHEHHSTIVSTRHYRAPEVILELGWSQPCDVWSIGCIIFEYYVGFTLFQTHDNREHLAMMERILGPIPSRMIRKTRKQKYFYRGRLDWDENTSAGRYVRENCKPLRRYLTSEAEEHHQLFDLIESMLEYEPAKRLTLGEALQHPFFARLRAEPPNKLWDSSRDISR
Sequence of Dual specificity tyrosine-phosphorylation-regulated kinase 1B (Q9Y463 whole entry): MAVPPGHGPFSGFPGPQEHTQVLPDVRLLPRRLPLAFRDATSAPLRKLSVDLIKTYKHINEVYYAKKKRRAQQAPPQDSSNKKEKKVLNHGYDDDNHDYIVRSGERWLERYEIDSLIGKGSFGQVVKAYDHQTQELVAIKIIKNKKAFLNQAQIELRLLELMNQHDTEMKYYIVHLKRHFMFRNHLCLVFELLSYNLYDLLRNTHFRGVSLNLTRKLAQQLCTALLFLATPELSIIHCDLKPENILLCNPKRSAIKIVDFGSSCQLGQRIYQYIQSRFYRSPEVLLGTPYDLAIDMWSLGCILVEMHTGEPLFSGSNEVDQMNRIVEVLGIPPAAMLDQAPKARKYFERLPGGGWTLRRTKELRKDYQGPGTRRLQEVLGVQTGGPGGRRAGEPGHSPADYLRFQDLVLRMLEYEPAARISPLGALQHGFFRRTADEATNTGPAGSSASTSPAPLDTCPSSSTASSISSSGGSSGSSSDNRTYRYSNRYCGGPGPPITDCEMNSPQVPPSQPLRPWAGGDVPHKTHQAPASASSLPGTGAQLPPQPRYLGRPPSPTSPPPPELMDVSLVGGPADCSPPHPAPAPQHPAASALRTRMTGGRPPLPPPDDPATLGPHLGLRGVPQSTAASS
Sequence of Leucine-rich repeat serine/threonine-protein kinase 2 (Q5S007 whole entry): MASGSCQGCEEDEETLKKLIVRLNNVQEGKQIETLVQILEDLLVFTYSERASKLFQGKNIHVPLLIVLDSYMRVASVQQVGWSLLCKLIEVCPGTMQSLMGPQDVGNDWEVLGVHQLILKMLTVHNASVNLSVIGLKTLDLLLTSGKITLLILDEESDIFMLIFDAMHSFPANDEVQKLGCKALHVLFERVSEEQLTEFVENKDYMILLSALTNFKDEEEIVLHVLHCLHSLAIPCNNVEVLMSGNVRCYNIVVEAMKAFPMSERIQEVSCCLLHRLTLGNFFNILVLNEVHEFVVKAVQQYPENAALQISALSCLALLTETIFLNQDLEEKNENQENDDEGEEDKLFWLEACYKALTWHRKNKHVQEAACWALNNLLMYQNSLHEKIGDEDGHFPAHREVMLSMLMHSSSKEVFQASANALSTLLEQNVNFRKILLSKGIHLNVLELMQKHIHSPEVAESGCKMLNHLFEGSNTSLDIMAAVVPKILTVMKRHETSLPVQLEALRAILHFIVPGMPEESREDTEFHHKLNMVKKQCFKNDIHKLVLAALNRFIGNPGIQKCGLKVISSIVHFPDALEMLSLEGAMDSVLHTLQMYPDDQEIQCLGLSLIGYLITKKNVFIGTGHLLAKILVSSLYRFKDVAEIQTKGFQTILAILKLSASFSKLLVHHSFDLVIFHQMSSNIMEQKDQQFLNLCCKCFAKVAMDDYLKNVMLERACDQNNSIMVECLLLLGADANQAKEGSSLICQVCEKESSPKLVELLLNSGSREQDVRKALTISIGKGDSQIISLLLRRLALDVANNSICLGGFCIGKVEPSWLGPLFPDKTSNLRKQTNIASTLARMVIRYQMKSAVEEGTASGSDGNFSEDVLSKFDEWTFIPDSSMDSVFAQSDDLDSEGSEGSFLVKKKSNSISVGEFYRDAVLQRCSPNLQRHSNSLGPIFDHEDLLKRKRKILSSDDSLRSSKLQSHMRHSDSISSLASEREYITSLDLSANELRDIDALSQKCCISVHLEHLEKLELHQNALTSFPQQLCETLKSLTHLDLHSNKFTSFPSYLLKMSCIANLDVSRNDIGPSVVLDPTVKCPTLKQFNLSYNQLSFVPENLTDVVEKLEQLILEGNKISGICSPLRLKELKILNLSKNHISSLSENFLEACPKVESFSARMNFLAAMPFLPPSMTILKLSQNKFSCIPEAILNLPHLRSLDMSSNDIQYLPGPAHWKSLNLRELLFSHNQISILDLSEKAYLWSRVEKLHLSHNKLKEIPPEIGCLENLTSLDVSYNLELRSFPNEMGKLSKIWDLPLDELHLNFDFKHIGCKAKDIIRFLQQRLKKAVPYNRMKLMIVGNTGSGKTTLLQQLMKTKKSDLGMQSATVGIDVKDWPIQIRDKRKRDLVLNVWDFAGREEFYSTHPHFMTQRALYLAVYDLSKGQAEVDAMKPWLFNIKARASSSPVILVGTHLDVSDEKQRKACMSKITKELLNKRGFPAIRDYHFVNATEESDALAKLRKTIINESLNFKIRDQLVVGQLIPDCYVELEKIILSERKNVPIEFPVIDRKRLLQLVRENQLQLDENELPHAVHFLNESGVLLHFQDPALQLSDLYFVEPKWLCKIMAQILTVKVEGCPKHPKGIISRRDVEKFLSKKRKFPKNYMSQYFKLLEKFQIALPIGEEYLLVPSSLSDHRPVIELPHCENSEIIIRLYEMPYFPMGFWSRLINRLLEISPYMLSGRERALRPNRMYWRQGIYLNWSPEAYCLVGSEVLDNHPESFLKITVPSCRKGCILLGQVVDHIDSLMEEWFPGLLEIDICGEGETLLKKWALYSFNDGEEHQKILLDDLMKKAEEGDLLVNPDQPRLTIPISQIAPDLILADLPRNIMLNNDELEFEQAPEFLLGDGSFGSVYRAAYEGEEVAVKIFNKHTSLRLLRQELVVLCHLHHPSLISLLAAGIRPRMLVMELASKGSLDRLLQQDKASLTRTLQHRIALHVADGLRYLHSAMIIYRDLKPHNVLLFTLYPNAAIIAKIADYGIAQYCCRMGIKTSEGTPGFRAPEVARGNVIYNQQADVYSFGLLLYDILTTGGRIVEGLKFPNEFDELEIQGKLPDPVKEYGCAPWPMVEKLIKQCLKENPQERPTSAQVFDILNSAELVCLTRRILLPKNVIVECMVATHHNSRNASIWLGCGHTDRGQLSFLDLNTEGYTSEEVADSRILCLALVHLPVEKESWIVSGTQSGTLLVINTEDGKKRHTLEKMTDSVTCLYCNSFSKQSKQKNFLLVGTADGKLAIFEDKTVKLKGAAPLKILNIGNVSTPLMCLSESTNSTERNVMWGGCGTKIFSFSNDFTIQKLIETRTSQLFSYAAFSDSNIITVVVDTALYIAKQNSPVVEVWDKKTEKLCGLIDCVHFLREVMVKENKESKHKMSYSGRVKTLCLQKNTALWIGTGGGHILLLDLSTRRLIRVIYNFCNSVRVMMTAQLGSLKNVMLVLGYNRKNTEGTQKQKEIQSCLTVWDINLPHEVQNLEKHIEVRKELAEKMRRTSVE

By EC50 is commonly meant the concentration needed to bring the measured effect to its halfway point. On to `CCOC(=O)c1ccc(NC2=CC(=O)C(=O)c3ccccc32)cc1`, for which the EC50 on Streptokinase A is 9930 nM (active).

For the compound `CCCCCCCCCCCCCCCC[N+](C)(C)C`, the EC50 on Streptokinase A was 19600 nM (active).

Usually Ki stands for the equilibrium dissociation constant of an inhibitor or competing ligand from its target. A word on the pKi: it is the negative decadic logarithm of the Ki, by convention in mol/L. As to `NC1CCC(Nc2nc(Cl)cc(-c3c[nH]c4ncccc34)n2)CC1` (stereo not drawn), the Ki was 0.794 nM (active) in assay [1]; 7.94 nM (active) in [2]; 2000 nM (active) in assay [3]; 3980 nM (active) in [4]; 158 nM (active) in assay [5]; 398 nM (active) in assay [6]. The Ki in assay [7] is > 2510 nM (inactive); in [8], 15.8 nM (active); in assay [9], 2 nM (active); in assay [10], 2510 nM (active); in [11], 200 nM (active). Moreover, the pKi is on record as 9.1 in assay [1]; 8.1 in assay [2]; 5.4 in assay [4]; 6.8 in assay [5]; 6.4 in assay [6]; 7.8 in assay [8]. Besides, the pKi is given as 8.7 in [9], 5.6 in assay [10] and 6.7 in [11].

Regarding `O=C(O)C1CN(Cc2ccc(OCc3ccccc3)cc2Cl)C1`, the Ki in assay [1] is > 2510 nM (inactive); in assay [2], > 3980 nM (inactive); in assay [3], > 3160 nM (inactive); in [4], > 3980 nM (inactive); in assay [5] it was > 5010 nM (inactive); in assay [6] it was > 3980 nM (inactive). Moreover, the Ki was > 2510 nM (inactive) in assay [7]; > 2510 nM (inactive) in assay [8]; > 2510 nM (inactive) in [9]; > 3160 nM (inactive) in assay [10]; > 3980 nM (inactive) in assay [11].
